From patent publication US6849632B2, “Heteroaryl alkyl piperazine derivatives” (CV Therapeutics, Inc., priority 2000, dated 2005)
“And” between values parts separate entries of the source, which are not always exact repeats. Equal entries are not always repeated.

Each compound was assayed on mitochondrial fatty acid oxidation using palmitoyl CoA as substrate (assay: Palmitoyl CoA oxidation in isolated rat heart mitochondria). Conditions: 50 μm compound, 15 min at 30° C.
Type: biochemical
Procedure: Rat heart mitochondria were isolated by the method of Nedergard and Cannon (Methods in Enzymol. 55, 3, 1979). Palmitoyl CoA oxidation—The Palmityl CoA oxidation was carried out in a total volume of 100 micro liters containing the following agents: 110 mM KCl, 33 mM Tris buffer at pH 8, 2 mM KPi, 2 mM MgCl2, 0.1 mM EDTA, 14.7 microM defatted BSA, 0.5 mM malic acid, 13 mM carnitine, 1 mM ADP, 52 micrograms of mitochondrial protein, and 16 microM 1-C14 palmitoyl CoA (Sp. Activity 60 mCi/mmole; 20 microCi/ml, using 5 microliters per assay). The compounds of this invention were added in a DMSO solution at the following concentrations: 100 microM, and 50 microM. In each assay, a DMSO control was used. After 15 min at 30° C., the enzymatic reaction was centrifuged (20,000 g for 1 min), and 70 microliters of the supernatant was added to an activated reverse phase silicic acid column (approximately 0.5 ml of silicic acid). The column was eluted with 2 ml of water, and 0.5 ml of the eluent was used for scintillation counting to determine the amount of C^14 trapped as C^14 bicarbonate ion.

Question: With `Cc1cccc(C)c1NC(=O)CN1CCN(CC(O)COc2ccc3oc(-c4cccc(C(F)(F)F)c4)nc3c2)CC1` (stereo not shown) [Compound 7, N-(2,6-dimethyl-phenyl)-2-(4-{2-hydroxy-3-[2-(3-trifluoromethylphenyl)benzoxazol-5-yloxy]-propyl}-piperazin-1-yl)acetamide] as the compound, how does the “Inhibition of mitochondrial fatty acid oxidation using palmitoyl CoA as substrate - % of Control, 50 μm (%)” value (from here on “Inhibition … 50 μm (%)”) read?
Answer: 77%

Question: Which “Inhibition … 50 μm (%)” value does the source give for `Cc1cccc(C)c1NC(=O)CN1CCN(CC(O)COc2ccc3oc(-c4ccccc4)nc3c2)CC1` (stereo not shown) [Compound 60, N-(2,6-dimethylphenyl)-2-{4-[2-hydroxy-3-(2-phenyl-benzoxazol-5-yloxy)-propyl)-piperazin-1-yl}acetamide] here?
Answer: 61%

Question: With `Cc1cccc(C)c1NC(=O)CN1CCN(CC(O)COc2cccc3nc(-c4ccccc4)sc23)CC1` (stereo not shown) [Compound 62] as the compound, how does the “Inhibition … 50 μm (%)” value read?
Answer: 62%

Question: Which “Inhibition … 50 μm (%)” value does the source give for `Cc1cccc(C)c1NC(=O)CN1CCN(CC(O)COc2ccc3oc(-c4ccc(C(F)(F)F)cc4)nc3c2)CC1` (stereo not shown) [Compound 68, N-(2,6-dimethylphenyl)-2-(4-{2-hydroxy-3-[2-(4-trifluoromethyl-phenyl)benzoxazol-5-yloxy]-propyl}-piperazin-1-yl)acetamide] here?
Answer: 68%

Same assay, conditions: 100 μm compound, 15 min at 30° C.

Question: For `Cc1cccc(C)c1NC(=O)CN1CCN(CC(O)CNc2nc3ccccc3s2)CC1` (stereo not shown) [Compound 39, 2-{4-[3-(benzothiazol-2-ylamino)-2-hydroxypropyl]piperazinyl}-N-(2,6-dimethylphenyl)acetamide], which “Inhibition of mitochondrial fatty acid oxidation using palmitoyl CoA as substrate - % of Control, 100 μm (%)” value (shortened to “Inhibition … 100 μm (%)”) is on record?
Answer: 27%

Question: `Cc1nc2ccc(OCC(O)CN3CCN(CC(=O)Nc4c(C)cccc4C)CC3)cc2s1` (stereo not shown) [Compound 49, N-(2,6-dimethylphenyl)-2-{4-[2-hydroxy-3-(2-methyl-benzothiazol-6-yloxy)-propyl]-piperazin-1-yl}aceamide] was tested. Which “Inhibition … 100 μm (%)” value did it give?
Answer: 3%

Question: How did the “Inhibition … 100 μm (%)” value turn out when `Cc1nc2cc(OCC(O)CN3CCN(CC(=O)Nc4ccc(O)cc4)CC3)ccc2s1` (stereo not shown) [Compound 54, 2-{4-[2-hydroxy-3-(2-methyl-benzothiazol-5-yloxy)-propyl]-piperazin-1-yl}-N-(4-hydroxy-phenyl)acetamide] was run?
Answer: 81%

Question: For `Cc1nc2cc(OCC(O)CN3CCN(CC(=O)Nc4c(C)cccc4C)C(=O)C3)ccc2s1` (stereo not shown) [Compound 64, N-(2,6-dimethylphenyl)-2-{4-[2-hydroxy-3-(2-methyl-benzothiazol-5-yloxy)-propyl]-2-oxo-piperazin-1-yl}acetamide], which “Inhibition … 100 μm (%)” value is on record?
Answer: 41%

Question: With `Cc1cccc(C)c1NC(=O)CN1CCN(CC(O)COc2cccnc2)CC1` (stereo not shown) [Compound 72, N-(2,6-dimethylphenyl)-2-{4-[2-hydroxy-3-(pyridin-3-yloxy)-propyl]-piperazin-1-yl}acetamide] as the compound, how does the “Inhibition … 100 μm (%)” value read?
Answer: 8%

Question: Which “Inhibition … 100 μm (%)” value does the source give for `Cc1cccc(C)c1NC(=O)CN1CCN(CC(O)CNc2nc3ccccc3o2)CC1` (stereo not shown) [Compound 82, 2-{4-[3-(benzoxazol-2-ylamino)-2-hydroxypropyl]piperazinyl}-N-(2,6-dimethylphenyl)acetamide] here?
Answer: 22%

Same assay, conditions: Table 1, read-out: IC50 (μm), inhibition of mitochondrial fatty acid oxidation using palmitoyl CoA as substrate

Question: `Cc1nc2cc(OCC(O)CN3CCN(CC(=O)Nc4ccc(O)cc4)CC3)ccc2s1` (stereo not shown) [Compound 54, 2-{4-[2-hydroxy-3-(2-methyl-benzothiazol-5-yloxy)-propyl]-piperazin-1-yl}-N-(4-hydroxy-phenyl)acetamide] was tested. Which IC50 did it give?
Answer: ~8 µM

Same assay, conditions: Table IA, read-out: Effect on Palmitoyl CoA Oxidation (IC50)

Question: For “2-(4-{(2S)-3-[2-(4-chlorophenyl)benzoxazol-5-yloxy]-2-hydroxypropyl}piperazinyl)-N-[2-(hydroxymethyl)-6-methylphenyl]acetamide”, which IC50 is on record?
Answer: 12 µM and 20 µM

Question: How did the IC50 turn out when “2-(4-{(2S)-3-[2-(4-chlorophenyl)benzoxazol-5-yloxy]-2-hydroxypropyl}piperazinyl)-N-[4-(trifluoromethyl)phenyl]acetamide” was run?
Answer: 12.9 µM

Question: With “2-((3S)-4-{(2S)-3-[2-(2-chlorophenyl)benzoxazol-5-yloxy]-2-hydroxy-propyl}-3-methylpiperazinyl)-N-(2,6-dimethylphenyl)acetamide” as the compound, how does the IC50 read?
Answer: 19 µM

Question: How did the IC50 turn out when “2-((3S)-4-{(2S)-3-[2-(3-fluorophenyl)benzoxazol-5-yloxy]-2-hydroxy-propyl}-3-methylpiperazinyl)-N-(2,6-dimethylphenyl)acetamide” was run?
Answer: 16 µM

Question: With “2-{4-[(2R)-2-hydroxy-3-(2-methylbenzothiazol-5-yloxy)propyl]-3,3-dimethylpiperazinyl}-N-(2,6-dimethylphenyl)acetamide” as the compound, how does the IC50 read?
Answer: 0.45 µM

Question: How did the IC50 turn out when “2-{4-[(2S)-2-hydroxy-3-(2-methylbenzothiazol-5-yloxy)propyl]piperazinyl}-N-(3-phenoxyphenyl)acetamide” was run?
Answer: 0.39 µM

Question: “2-{4-[(2S)-2-hydroxy-3-(2-methylbenzothiazol-5-yloxy)propyl]piperazinyl}-N-(4-methylphenyl)acetamide” was tested. Which IC50 did it give?
Answer: 1.7 µM

Question: Which IC50 does the source give for “2-{4-[(2S)-2-hydroxy-3-(2-methylbenzothiazol-5-yloxy)propyl]piperazinyl}-N-(4-phenylphenyl)acetamide” here?
Answer: 0.46 µM

Question: With “2-{4-[(2S)-2-hydroxy-3-(2-methylbenzothiazol-5-yloxy)propyl]piperazinyl}-N-[4-(4-chlorophenoxy)phenyl]acetamide” as the compound, how does the IC50 read?
Answer: 2 µM

Question: “2-{4-[(2S)-2-hydroxy-3-(2-methylbenzothiazol-5-yloxy)propyl]piperazinyl}-N-[4-(trifluoromethyl)phenyl]acetamide” was tested. Which IC50 did it give?
Answer: 7.6 µM

Question: With “2-{4-[(2S)-2-hydroxy-3-(2-methylbenzothiazol--yloxy)propyl]piperazinyl}-N-(4-phenoxyphenyl)acetamide” as the compound, how does the IC50 read?
Answer: 0.33 µM

Question: With “2-{4-[(2S)-2-hydroxy-3-(2-phenylbenzoxazol-5-yloxy)propyl]piperazinyl}-N-(3-phenylphenyl)acetamide” as the compound, how does the IC50 read?
Answer: 26 µM

Question: How did the IC50 turn out when “2-{4-[(2S)-2-hydroxy-3-(2-phenylbenzoxazol-5-yloxy)propyl]piperazinyl}-N-(4-phenoxyphenyl)acetamide” was run?
Answer: 11.3 µM

Question: “2-{4-[(2S)-3-(2-cyclohexylbenzothiazol-5-yloxy)-2-hydroxypropyl]piperazinyl}-N-(2,6-dimethylphenyl)acetamide” was tested. Which IC50 did it give?
Answer: 6.5 µM

Question: For “2-{(3S)-4-[(2S)-2-hydroxy-3-(2-methylbenzothiazol-5-yloxy)propyl]-3-methylpiperazinyl}-N-(4-cyanophenyl)acetamide”, which IC50 is on record?
Answer: 0.41 µM

Question: With `Cc1cccc(C)c1NC(=O)CN1CCN(C[C@H](O)COc2ccc3oc(-c4cccc(C(F)(F)F)c4)nc3c2)CC1` [2-[4-((2S)-2-hydroxy-3-{2-[3-(trifluoromethyl)phenyl]benzoxazol-5-yloxy}propyl)piperazinyl]-N-(2,6-dimethylphenyl)acetamide] as the compound, how does the IC50 read?
Answer: 13 µM

Question: For `Cc1nc2cc(OC[C@H](O)CN3CCN(CC(=O)Nc4c(C)cccc4C)C[C@@H]3C)ccc2s1` [2-{4-[(2R)-2-hydroxy-3-(2-methylbenzothiazol-5-yloxy)propyl](3S)-3-methylpiperazinyl}-N-(2,6-dimethylphenyl)acetamide], which IC50 is on record?
Answer: 5 µM

Question: How did the IC50 turn out when `Cc1nc2cc(OC[C@H](O)CN3CCN(CC(=O)Nc4c(C)cccc4C)CC3)ccc2s1` [2-{4-[(2R)-2-hydroxy-3-(2-methylbenzothiazol-5-yloxy)propyl]piperazinyl}-N-(2,6-dimethylphenyl)acetamide] was run?
Answer: 4 µM

Question: Which IC50 does the source give for `Cc1nc2cc(OC[C@@H](O)CN3CCN(CC(=O)Nc4c(C)cccc4C)CC3)ccc2s1` [2-{4-[(2S)-2-hydroxy-3-(2-methylbenzothiazol-5-yloxy)propyl]piperazinyl}-N-(2,6-dimethylphenyl)acetamide] here?
Answer: 8 µM

Question: With `Cc1nc2cc(OC[C@@H](O)CN3CCN(CC(=O)Nc4cccc(-c5ccccc5)c4)CC3)ccc2s1` [2-{4-[(2S)-2-hydroxy-3-(2-methylbenzothiazol-5-yloxy)propyl]piperazinyl}-N-(3-phenylphenyl)acetamide] as the compound, how does the IC50 read?
Answer: 0.18 µM

Question: Which IC50 does the source give for `Cc1nc2cc(OC[C@H](O)CN3CCN(CC(=O)Nc4c(C)cccc4C)C[C@H]3C)ccc2s1` [2-{(3R)-4-[(2R)-2-hydroxy-3-(2-methylbenzothiazol-5-yloxy)propyl]-3-methylpiperazinyl}-N-(2,6-dimethylphenyl)acetamide] here?
Answer: 10 µM

Question: For `Cc1nc2cc(OC[C@@H](O)CN3CCN(CC(=O)Nc4c(C)cccc4C)C[C@H]3C)ccc2s1` [2-{(3R)-4-[(2S)-2-hydroxy-3-(2-methylbenzothiazol-5-yloxy)propyl]-3-methylpiperazinyl}-N-(2,6-dimethylphenyl)acetamide], which IC50 is on record?
Answer: 2 µM

Question: For `Cc1nc2cc(OC[C@@H](O)CN3CCN(CC(=O)Nc4c(C)cccc4C)C[C@@H]3C)ccc2s1` [2-{(3S)-4-[(2S)-2-hydroxy-3-(2-methylbenzothiazol-5-yloxy)propyl]-3-methylpiperazinyl}-N-(2,6-dimethylphenyl)acetamide], which IC50 is on record?
Answer: 0.2 µM
